Where two headings read alike, the source gives them in different places.
Assays:
HK301 cells = assay: Annexin V apoptosis assay; type: cell-based, human; conditions: HK301 gliomaspheres, 72 hours, nutlin 2.5 μM
Experimental: (§1) Cells were collected and analyzed for Annexin V and PI staining according to manufacturer's protocol (BD Biosciences). Briefly, cells were plated at 5×10^4 cells/ml and treated with appropriate drugs. Following indicated time points, cells were collected, trypsinized, washed with PBS, and stained with Annexin V and PI for 15 minutes. Samples were then analyzed using the BD LSRII flow cytometer.
(§2) Annexin V staining was measured following 72 hrs of treatment. Using the Chalice software, the response of the combination was compared to its single agents. The combinatorial effects were calculated using the synergy score.

[1] = system: patient-derived GBM gliomaspheres; assay: Annexin V apoptosis assay; type: cell-based, human; conditions: for lethality in combination with nutlin: EGFRi non-responder cells (HK393, HK254)
Experimental: as §1, §2

[2] = Protein binding (fraction unbound) in blood and brain; type: in vitro ADME
From the text: (§3) Fu refers to “fraction unbound”.

Kpuu = type: in vivo; conditions: average; for Kp uu: brain/blood
From the text: as §3

[3] = system: GBM39 intracranial xenografts; assay: 18F-FDG PET/CT imaging of intracranial xenografts; type: in vivo, NSG mice; conditions: erlotinib 75 mg/kg, 15 hours post administration
Experimental: (§4) Drugs were administered through oral gavage.
(§5) Following 1 hr unconscious uptake, mice were taken off anesthesia but kept warm for another 5 hr of uptake. 6 hr after the initial administration of ^18F-FDG, mice were imaged using G8 PET/CT scanner (Sofie Biosciences). Per above, quantification was performed by drawing 3D regions of interest (ROI) using the AMIDE software.

[4] = system: HK393 intracranial xenografts; assay: 18F-FDG PET/CT imaging of intracranial xenografts; type: in vivo, NSG mice; conditions: acute EGFRi (erlotinib 75 mg/kg)
Experimental: as §4, §5

gliomas = conditions: cited from earlier work
HK301 = assay: GI50 assay, Cell Titer Glo, 3 days; type: cell-based, human; conditions: HK301, FIG. 2
Experimental: The GI50 Assays were performed using patient-derived glioblastoma cells. […] Cells were incubated for 3 days and then proliferation was assessed by Cell Titer Glo (Promega #G7570).

GBM39 = assay: GI50 assay, Cell Titer Glo, 3 days; type: cell-based, human; conditions: GBM39, FIG. 2
[5] = Pharmacokinetic studies, plasma and brain; type: in vivo, male CD-1 mice; conditions: oral; JGK005 10 mg/kg, erlotinib 25 mg/kg; FIG. 1
Experimental: Pharmacokinetic studies were performed on male CD-1 mice aged 8-10 weeks. Mice were dosed as indicated in duplicates. At the time points, whole blood was obtained by retro-orbital bleeding and brain tissue was harvested. Blood samples were centrifuged to obtain plasma and brain tissue was washed and homogenized. Samples were extracted with acetonitrile and supernatant was dried using a speed-vac. Dried samples were solubilized in 50:50:0.1 acetonitrile:water:formic acid and quantified on an Agilent 6400 series Triple Quadrupole LC/MS.

HK393 and HK254 cells = assay: 18F-FDG uptake assay in cells; type: cell-based, human; conditions: 4 hours, pictilisib 1 μM
Experimental: Cells were plated at 5×10^4 cells/ml and treated with designated drugs for indicated time points. Following appropriate treatment, cells were collected and resuspended in glucose-free DMEM/F12 (USBiological) containing ^18F-FDG (radioactivity 1 μCi/mL). Cells were incubated at 37° C. for 1 hr and then washed three times with ice cold PBS. Radioactivity of each sample was then measured using a gamma counter.

O=CC[C@@H](O)[C@H](O)[C@H](O)CO [2DG, 2-deoxyglucose]
synergy with nutlin (HK301 cells): synergy with nutlin
lethality in combination with nutlin [1]: synergistic lethality

COc1cc2ncnc(Nc3cccc(Cl)c3F)c2cc1OC(=O)N1CCN(C)C[C@H]1C [AZD3759]
Bound (blood) [2]: 94.07%
Bound (brain) [2]: 97.23%
fraction unbound [2]: 0.0277
fraction unbound ([2]; blood): 0.0593
Kpuu (Avg) (Kpuu): 1.30

C#Cc1cccc(Nc2ncnc3cc(OCCOC)c(OCCOC)cc23)c1 [Erlotinib]
Kp uu (Kpuu): 0.0513
apoptosis (annexin V staining) ([1]; non-responders, 72 hours of erlotinib exposure, 1 μM): −3%
18F-FDG uptake (PET) [3]: rapidly reduced ^18F-FDG uptake
18F-FDG uptake (PET) [4]: no changes in ^18F-FDG uptake
response rates (gliomas): ≤ 25%

C#Cc1cccc(Nc2ncnc3cc4c(cc23)OCCO4)c1 [JGK005]
activity against EGFR mutant glioblastoma (HK301): lower activity than erlotinib
activity against EGFR mutant glioblastoma (GBM39): lower activity than erlotinib
CNS penetration [5]: good CNS penetration compared to erlotinib

Fc1c(Cl)cccc1Nc1ncnc2cc3c(cc12)OCCO3 [JGK010]
Bound (blood) ([2]; blood (first line of each compound)): 99.48%
fraction unbound ([2]; blood (first line of each compound), read-out: Fu (blood)): 0.0052
Bound (brain) ([2]; brain (second line of each compound)): 99.44%
fraction unbound ([2]; brain (second line of each compound), read-out: Fu (brain)): 0.0056
Kp uu (Kpuu): 1.15

Fc1c(Br)cccc1Nc1ncnc2cc3c(cc12)OCCO3 [JGK037, N-(3-Bromo-2-fluorophenyl)-7,8-dihydro[1,4]dioxino[2,3-g]quinazolin-4-amine]
Kpuu (Avg) (Kpuu): 1.2994

CC[C@H]1/C=C/C=C/C[C@@H](C)[C@H](O)[C@@](C)(O)C(=O)[C@@H](C)[C@H](O)[C@@H](C)C(=O)[C@@H](C)[C@H](O)[C@@H](C)/C=C/C(=O)O[C@@H]2[C@H](C)[C@H](CC1)O[C@]1(CC[C@H](C)[C@H](C[C@@H](C)O)O1)[C@H]2C [oligomycin]
synergy with nutlin (HK301 cells): did not synergize with nutlin treatment

CS(=O)(=O)N1CCN(Cc2cc3nc(-c4cccc5[nH]ncc45)nc(N4CCOCC4)c3s2)CC1 [pictilisib]
lethality in combination with nutlin [1]: synergistic lethality
18F-FDG uptake (HK393 and HK254 cells): significantly reduced ^18F-FDG uptake

C=C(C)[C@H]1Cc2c(ccc3c2O[C@@H]2COc4cc(OC)c(OC)cc4[C@@H]2C3=O)O1 [rotenone]
synergy with nutlin (HK301 cells): did not synergize with nutlin treatment
